From patent US10226509B2, “Lymphangiogenesis inhibitors for cancer and for graft survival” (TUFTS UNIVERSITY, priority 2014, dated 2019)
“Also recorded” adds a separate entry of the source.

Columns and labels:
[1] = system: Gal-8-induced LEC sprouting; assay: LEC sprouting assay: Gal-8-induced sprouting with inhibitors or knockdown; type: cell-based, human; conditions: Gal-8 0.75 μM, 24 h; TDG 20 mM; LY294002 20 μM; U0126 20 μM; PD0325901 1 μM; Avastin 10 μg/ml; Obtustatin 4 μM; antibodies 20 μg/ml; siRNA-transfected LECs
Experimental: LEC spheroids were generated by seeding primary LECs at passage 4 or 5 in each well of 384-well hanging-drop plates (3D Biomatrix) in complete EGM-2 MV medium containing 0.25% methyl cellulose according to the manufacturer's instructions (750 cells/well). After 18 hours, LEC spheroids were collected, resuspended in serum-free EBM-2 basal medium, and mixed with collagen solution (PureCol collagen, Advanced BioMatrix, 2.2 mg/ml in M199 medium, pH adjusted to 7.4 with NaHCO3 and NaOH). Aliquots of the LEC spheroid/collagen mixture (250 μl/well of 48-well plate) were incubated in the presence or absence of various test agents for 24 hr. At the end of the incubation period, spheroids were stained with Calcein AM (Invitrogen, 1 μg/mL, 37° C., and 30 min). Fluorescent images were acquired using the EVOS FL cell imaging system, pixels were inverted for better visualization and cumulative length of each sprout was calculated. Results were expressed as fold change compared to corresponding controls. […] Test agents used included thiodigalactoside (10 to 50 mM, Carbosynth), 3′-sialyl lactose (2 to 10 mM, Carbosynth), 6′-sialyl lactose (2 to 10 mM, Carbosynth), LY294002 (20 μM, Abeam), U0126 (20 μM, Abeam), PD0325901 (1 μM, Selleckchem), human VEGFR-3-Fc chimera (10 μg/ml, R&D), human VEGFR-2-Fc chimera (10 μg/ml, R&D), Avastin (10 μg/ml, bevacizumab, Genentech/Roche), human control IgG (10 μg/ml, Southern Biotech), anti-human podoplanin functional grade antibody (10 μg/ml, eBioscience), and rat IgG2a κ isotype control functional grade antibody (10 μg/ml, eBioscience).
To determine the role of these pathways on Gal-8-induced lymphangiogenesis, LEC spheroids were stimulated with Gal-8 (0.75 μM) in the presence or absence of PI3K inhibitor (LY294002, 20 μM) and two different MEK inhibitors (U0126, 20 μM; PD0325901, 1 μM). After overnight treatment with Gal-8, accumulated sprout lengths were quantified.

[2] = system: VEGF-C-induced LEC sprouting; assay: LEC sprouting assay: VEGF-C-induced sprouting; type: cell-based, human
Experimental: LEC spheroids were generated by seeding primary LECs at passage 4 or 5 in each well of 384-well hanging-drop plates (3D Biomatrix) in complete EGM-2 MV medium containing 0.25% methyl cellulose according to the manufacturer's instructions (750 cells/well). After 18 hours, LEC spheroids were collected, resuspended in serum-free EBM-2 basal medium, and mixed with collagen solution (PureCol collagen, Advanced BioMatrix, 2.2 mg/ml in M199 medium, pH adjusted to 7.4 with NaHCO3 and NaOH). Aliquots of the LEC spheroid/collagen mixture (250 μl/well of 48-well plate) were incubated in the presence or absence of various test agents for 24 hr. At the end of the incubation period, spheroids were stained with Calcein AM (Invitrogen, 1 μg/mL, 37° C., and 30 min). Fluorescent images were acquired using the EVOS FL cell imaging system, pixels were inverted for better visualization and cumulative length of each sprout was calculated. Results were expressed as fold change compared to corresponding controls. It was observed that sprout lengths vary from passages to passages. Test agents used included thiodigalactoside (10 to 50 mM, Carbosynth), 3′-sialyl lactose (2 to 10 mM, Carbosynth), 6′-sialyl lactose (2 to 10 mM, Carbosynth), LY294002 (20 μM, Abeam), U0126 (20 μM, Abeam), PD0325901 (1 μM, Selleckchem), human VEGFR-3-Fc chimera (10 μg/ml, R&D), human VEGFR-2-Fc chimera (10 μg/ml, R&D), Avastin (10 μg/ml, bevacizumab, Genentech/Roche), human control IgG (10 μg/ml, Southern Biotech), anti-human podoplanin functional grade antibody (10 μg/ml, eBioscience), and rat IgG2a κ isotype control functional grade antibody (10 μg/ml, eBioscience).
In this assay, the LEC spheroids were treated with VEGF-C (50 ng/ml) in the presence or absence of 0.75 μM of Gal-8 for 24 hours, and then accumulated sprout lengths were quantified. […] Synergistic effect of Gal-8 on VEGF-C-induced LEC sprouting was dose-dependent. […] At concentrations >0.5 μM Gal-8, there was no further increase in the degree of VEGF-C-induced lymphangiogenesis (FIG. 4C).
To further characterize the role of carbohydrate-mediated recognition in VEGF-C-induced lymphangiogenesis, LEC spheroids were stimulated with VEGF-C (50 ng/ml) in the presence or absence of three different galectin inhibitors. […] Therefore, the data establishes the critical role of Gal-8-mediated carbohydrate-mediated recognition in VEGF-C-induced lymphangiogenesis.

mouse corneas [3] = assay: Mouse model of suture-induced inflammatory corneal lymphangiogenesis; type: in vivo; conditions: subconjunctival injections days 0, 2, 4, 6; TDG 200 mM; Gal-8N 15 μg; Prox1-EGFP mice
Description: The mouse model of suture-induced lymphangiogenesis was used as described in Cho, Y. K., et al. 2012. Invest Ophthalmol Vis Sci 53:685-692 and Cursiefen, C., et al. 2004. Invest Ophthalmol Vis Sci 45:1117-1124. Two 11-0 sutures were placed intrastromally about 2 mm from the limbus at the 12 and 6 o'clock positions in the Prox1-EGFP reporter mice. After surgery, a veterinary ophthalmic ointment was applied to prevent infection. Sutures were left in place for 7 days. To assess the effect of galectin inhibitors on suture-induced lymphangiogenesis, 10 μL of vehicle (PBS), TDG (200 mM in PBS), or Gal-8N (15 μg in PBS) were subconjunctivally injected on post-surgery days 0, 2, 4 and 6 using a 32 gauge needle with a 10 μL syringe (Hamilton). On day 7 post-surgery, mouse corneas were harvested and processed for staining with anti-LYVE-1 as described in examples herein. The areas of lymphatic vessels covering the whole corneas were calculated.
There is much interest in finding ways to inhibit prolymphangiogenic factors as means of suppressing cancer metastasis, transplant rejection and chronic inflammation. To determine whether galectins can be targeted to control lymphangiogenesis, a well-established in vivo model of lymphangiogenesis was used. […] At the end of the treatment period, lymphatic vessel areas were quantified.

[4] = system: VEGF-A-induced LEC sprouting; assay: LEC sprouting assay: VEGF-A-induced sprouting; type: cell-based, human; conditions: VEGF-A 50 ng/ml; 10 μg/ml
Experimental: LEC spheroids were generated by seeding primary LECs at passage 4 or 5 in each well of 384-well hanging-drop plates (3D Biomatrix) in complete EGM-2 MV medium containing 0.25% methyl cellulose according to the manufacturer's instructions (750 cells/well). After 18 hours, LEC spheroids were collected, resuspended in serum-free EBM-2 basal medium, and mixed with collagen solution (PureCol collagen, Advanced BioMatrix, 2.2 mg/ml in M199 medium, pH adjusted to 7.4 with NaHCO3 and NaOH). Aliquots of the LEC spheroid/collagen mixture (250 μl/well of 48-well plate) were incubated in the presence or absence of various test agents for 24 hr. […] Fluorescent images were acquired using the EVOS FL cell imaging system, pixels were inverted for better visualization and cumulative length of each sprout was calculated. Results were expressed as fold change compared to corresponding controls. […]
In addition, investigations were performed to determine whether VEGF-A/VEGFR-2 pathway, which also promotes lymphangiogenesis, is involved in Gal-8-mediated lymphangiogenesis. LEC spheroids were stimulated with Gal-8 (0.75 μM) in the presence or absence of VEGFR-3-Fc, VEGFR-2-Fc (10 μg/ml), Avastin (bevacizumab) (10 μg/ml) or control IgG (10 μg/ml) for 24 hours and then accumulated sprout lengths were quantified. […]

mouse corneas [5] = assay: Corneal mouse micropocket lymphangiogenesis assay; type: in vivo; conditions: for mean lymphatic vessel areas: seven days
Experimental: The corneal micropocket lymphangiogenesis assay was performed using implants containing a test agent, hydron (polyhydroxylmethylmethacrylate), and sucralfate (Cao, R., et al. 2011. Nat Protoc 6:817-826; Rogers, M. S., et al. 2007. Nat Protoc 2:2545-2550). Test agents included full-length Gal-8 (40-320 ng/pellet) and VEGF-C (160 ng/pellet). Implants containing hydron and sucralfate alone served as negative controls. The mice were anesthetized by intraperitoneal injection of a mixture of ketamine (90-120 mg/kg) and xylazine (10 mg/kg). The eyes were topically anesthetized with proparacaine and were gently proptosed (forwardly displaced) with forceps. Using a corneal blade and a stereoscope, intrastromal linear keratotomy was performed about 2 mm from the limbus. Using a von Graefe knife (Miltex), a pocket was extended towards the limbus, and the pellet was maneuvered into the pocket. The wound was coated with a veterinary ophthalmic ointment (Akorn) to prevent infection. Mouse corneas were harvested 7 days after pellet implantation, fixed in 4% paraformaldehyde/PBS (1 hour at 4° C.), washed with PBS, and fixed again in iced acetone (15 min at −20° C.). To quantitate the extent of lymphangiogenesis in Prox-1-EGFP reporter mice, flat mounts of the dissected corneas were evaluated by fluorescence microscopy. Fluorescent images were acquired by EVOS FL cell imaging system (Invitrogen), and vessel areas were calculated using the formula (Rogers, M. S., et al. 2007. Nat Protoc 2:2545-2550): vessel area=pellet distance×vessel length×clock hours×[…]. To quantitate the extent of lymphangiogenesis in WT and PDPN-deficient mice, corneas were stained with eFluor 570-anti-mouse LYVE-1 (clone ALY7, eBioScience, and 1:75) in 10% goat serum/0.2% Triton X-100/PBS overnight, 4° C. After several washes with 0.2% Triton X-100/PBS, the corneas were flattened and mounted with VECTASHIELD mounting medium (Vector Laboratories) and evaluated by fluorescence microscopy. In some examples, for comparisons, corneas were stained with Alexa Fluor® 488-anti-mouse CD31 (clone MEC13.3, 1:100, BioLegend) to visualize blood vessels.

PDPN = assay: Cell surface expression of PDPN by flow cytometry; type: cell-based, human; conditions: 30 min post-treatment; VEGF-C 50 ng/ml
Experimental: (§1) Primary LECs were serum-starved overnight in basal EBM-2 medium. The cells were incubated with or without VEGF-C (50 ng/ml, PeproTech) or Gal-8 (0.2 μM) in serum-free EBM-2 medium for 10 and 30 min. At the end of the incubation period, cells were lifted with StemPro® Accutase® cell dissociation reagent (Invitrogen), washed with PBS and fixed with 4% paraformaldehyde/PBS on ice for 10 min, and were then stained using rat anti-human PDPN (1:500, BioLegend) and mouse anti-human VEGFR-3 (clone 9D9F9) (1:100, BioLegend) primary antibodies in cell staining buffer (BioLegend, 45 min on ice) and Alexa Fluor® 488 donkey anti-rat and Alexa Fluor® 647 anti-mouse secondary antibodies (1:1000, Invitrogen, 30 min on ice). For negative control, the primary antibodies were omitted. The stained cells were fixed with 2% paraformaldehyde/PBS, analyzed with BD FACSCalibur, and the mean fluorescence intensity of VEGFR-3 and PDPN were quantified with the FlowJo software (version 9.5.2).

VEGFR-3 = assay: Cell surface expression of VEGFR-3 by flow cytometry; type: cell-based, human; conditions: Gal-8 0.2 μM or VEGF-C 50 ng/ml
Experimental: as §1

Row | Molecule | effect on Gal-8-induced LEC sprouting (in words) [1] | effect on VEGF-C-induced LEC sprouting (in words) ([2]; VEGF-C 50 ng/ml, 24 h) | effect on the synergistic effect of Gal-8 on VEGF-C-induced sprouting ([2]; VEGF-C plus Gal-8) | effect on suture-induced corneal lymphangiogenesis (mouse corneas [3]) | effect on VEGF-A-induced LEC sprouting (in words) [4] | extent of vessel formation in galectin-8 KO mice compared to WT (mouse corneas [5]; 160 ng pellet, one week) | mean lymphatic vessel areas (mouse corneas [5]; PDPN KO mice, 160 ng pellet) | mean lymphatic vessel areas (mouse corneas [5]; WT mice, 160 ng pellet) | lymphangiogenesis induced by pellet in cornea (in words) (mouse corneas [5]; one week after implantation, Gal-8 40-320 ng/pellet, VEGF-C 160 ng, WT or Prox1-EGFP mice) | decrease of cell surface expression of PDPN (PDPN) | decrease of cell surface expression of VEGFR-3 (VEGFR-3)
1 | OC[C@H]1O[C@@H](S[C@@H]2O[C@H](CO)[C@H](O)[C@H](O)[C@H]2O)[C@H](O)[C@@H](O)[C@H]1O [TDG, thiodigalactoside, reference compound] | almost completely inhibited | inhibited | almost completely inhibited | significantly suppressed |  |  |  |  |  |  | 
2 | Avastin: an antibody targeted against VEGF-A | had no effect |  |  |  | almost completely abolished |  |  |  |  |  | 
3 | VEGF-C: lymphangiogenic growth factor used as positive control (protein) AHYNTEILKSIDNEWRKTQCMPREVCIDVGKEFGVATNTFFKPPCVSVYRCGGCCNSEGLQCMNTSTSYLSKTLFEITVPLSQGPKPVTISFANHTSCRCMSKLDVYRQVHSIIRR |  |  |  |  |  | significantly reduced | 0.67 mm^2 | 1.35 mm^2 | markedly induced both hemangiogenesis and lymphangiogenesis; also recorded: induce robust growth of lymphatic vessels | about 5% | about 40%
